According to patent publication US20220119375A1, “3-ARYLOXY-3-ARYL-PROPYLAMINE COMPOUND AND USES THEREOF” (Zhangzhou Pien Tze Huang Pharmaceutical Co., Ltd., priority 2018, published 2022):
Like-named read-outs stand apart in the source and are kept apart here.

How the values were obtained:
human TRPA1 channel = target: T1, human TRPA1 channel (Homo sapiens, UniProt O75762); assay: manual patch clamp detection of TRPA1 inhibitory activity; format: cell-based; details: for IC50: HEK293 stably expressing human TRPA1, 100 μM AITC, +100 mV
T1 construct: expressed in transfected cells; host or cells: HEK293
Method: The HEK293 cell line stably expressing human TRPA1 channel was placed in T75 culture flask with DMEM medium containing 15 μg/mL Blasticidin S HCl, 200 μg/mL Hygromycin B and 10% FBS, and cultured in incubator at 37° C. and 5% CO2. When the cell density reached about 80%, the culture medium was removed, the residue was rinsed with phosphate buffered saline (PBS) without calcium and magnesium. 2 mL of trypsin was added to digest for 2 minutes, and 8 mL of culture medium was added to terminate the digestion. The cells were collected to 15 mL centrifuge tube and centrifuged at 800 rpm for 3 min. After the supernatant was removed, an appropriate volume of extracellular fluid was added to re-suspend the cells.
In manual patch clamp detection, HEKA system (Patch Master software) was used together with EPC-10 amplifier to record the whole cell current of TRPA1 stably transfected cell line at room temperature. intracellular fluid formulation for whole cell recording was as follows (mM): 140 CsCl, 10 HEPES, 5 EGTA, 0.1 CaCl2, 1 MgCl2 (pH 7.2, osmotic pressure 295-300 mOsm); Ca^2+-free extracellular fluid formulation for recording was as follows (mM): 140 NaCl, 5 KCl, 0.5 EGTA, 1 MgCl2, 10 Glucose, 10 HEPES (pH 7.4, osmotic pressure 300-310 mOsm). Glass microelectrode resistance used for patch clamp recording was 2-4 MΩ, the sampling frequency was 10 kHz, the filter frequency was 2.9 kHz, the cell clamp was 0 mV, and the voltage stimulation command (channel protocol) was a linear voltage from −100 mV to +100 mV for 300 ms, then restored to 0 mV clamping potential. The recording was performed every 2 s. The hTRPA1 current was induced by 100 μM AITC. To ensure the accuracy of current recording, the series resistance was used for 60% compensation during recording.
Data recording and current amplitude measurement export were completed by Patch Master software. Cells with sealing impedance lower than 500 MΩ, w were not included in the statistics. The original current data were corrected by software for leakage reduction, and the hTRPA1 current amplitude was measured at +100 mV. The compound dose-effect curve and IC50 were fitted and calculated by GraphPad Prism 5.02 (GraphPad Software, San Diego, Calif.).

[1] = Pharmacokinetic test in rat; format: in vivo; details: for bioavailability: oral, calculated on AUC(0-∞); for half-life: read-out: T½ (converted)
Method: A certain amount of sample was weighed and dissolved in deionized water to prepare 1 mg/mL of solution. Male SD rats were used as test animals. The dose of single intravenous (IV) injection was 2 mg/kg, and the dose of oral (PO) administration was 10 mg/kg. Each group had three rats. The rats in oral group were fasted for 10-14 hours before administration, and were fed 4 hours after administration. Animal blood collection time points were as follows: before administration, and 5 min, 15 min, 30 min, 1 h, 2 h, 4 h, 6 h, 8 h, and 24 h after administration for intravenous administration; before administration, and 15 min, 30 min, 1 h, 2 h, 4 h, 6 h, 8 h and 24 h after administration for oral administration. About 0.25 mL of blood was collected via the jugular vein from each animal, and heparin sodium was used for anticoagulation. After collecting the blood samples, the blood samples were placed on ice and centrifuged to separate the plasma (centrifugation conditions: 8000 rpm, 6 min, 4° C.). The collected plasma was stored at −80° C. before analysis. 50 μL of plasma sample was taken into 1.5 mL of centrifuge tube, 250 μL of internal standard solution was added, and the same volume of methanol rather than internal standard solution was added in the blank group. The mixture was vortexed and mixed, centrifuged at 14,000 rpm for 5 min, 200 μL of supernatant was taken into 96-well sample plate, and the LC-MS/MS was used for sample analysis. In the linear regression analysis, the peak area was taken as the y-axis and the drug concentration was taken as the x-axis. The linear relationship between the peak area ratio and the concentration was expressed by the correlation coefficient (R) obtained from the regression equation of the compound. According to the blood concentration data of the drug, the pharmacokinetic calculation software WinNonlin7.0 non-compartmental model was used to calculate the pharmacokinetic parameters of the test drug.
Internal standard working solution: a certain amount of tolbutamide internal standard stock solution with a concentration of 490,000 ng/mL was taken into a volumetric flask with a certain volume, diluted to a desired volume with methanol and mixed well to obtain the internal standard working solution with a concentration of 200 ng/mL.

[2] = tested on: ICR mice, acetic acid writhing pain model; assay: mice acetic acid writhing pain model; format: in vivo, mouse; details: for number of appearance of writhing reaction: within 30 min, saline group 49 times
Method: Male ICR mice, weighed 22-25 g, were fasted but allowed to drink water freely for 2 h before administration. All ICR mice were weighed and grouped randomly, and the number of animals in each group was >10. […] The test compound was IC-1 (the compound prepared in Example 9), and the administration dosages were 5 mg/kg and 10 mg/kg. […] When concave abdomen, stretched trunk and hind claw, and high buttocks appeared, one number point was recorded. […] After administration, the fewer visceral pains in the mice were, the stronger the analgesic effect of the compound was.

[3] = tested on: C57BL/6 mice, formalin pain model; assay: mice formalin pain model, dose response (Example 50); format: in vivo, mouse; details: for Licking time: Phase II, 10-60 min
Method: 100 male C57BL/6 mice (9-week aged), were randomly divided into 10 groups to evaluate analgesic activity of two compounds in the mice formalin pain model, and each group had 10 mice. […] Before the start of experiment, the mice were allowed to adapt experimental environment for 72 h with free feeding and drinking water. The test drug was administrated intraperitoneally, and the dosage was as follows:
After administration, the mice were placed in a transparent, ventilated plexiglass cylinder, and 1 h later, 20 μl of 4% formalin solution was injected into the left hind plantar of mice in each group by micro-injector, and claw pain response in mice was recorded in real time by a mini-camera. The time length of licking left claw was used as an indicator of pain response, licking time in 0-10 min (phase I) and 10-60 min (phase II) was observed and recorded, and the statistical analysis was conducted. The half effective dose (ED50) of three compounds was calculated: ED50 referred to the dose of the drug that decreased licking time by half as compared with the blank control group. The smaller the ED50 value was, the lower the effective analgesic dose of the compound was and the stronger the analgesic effect was.

T1 sequence (O75762 whole entry): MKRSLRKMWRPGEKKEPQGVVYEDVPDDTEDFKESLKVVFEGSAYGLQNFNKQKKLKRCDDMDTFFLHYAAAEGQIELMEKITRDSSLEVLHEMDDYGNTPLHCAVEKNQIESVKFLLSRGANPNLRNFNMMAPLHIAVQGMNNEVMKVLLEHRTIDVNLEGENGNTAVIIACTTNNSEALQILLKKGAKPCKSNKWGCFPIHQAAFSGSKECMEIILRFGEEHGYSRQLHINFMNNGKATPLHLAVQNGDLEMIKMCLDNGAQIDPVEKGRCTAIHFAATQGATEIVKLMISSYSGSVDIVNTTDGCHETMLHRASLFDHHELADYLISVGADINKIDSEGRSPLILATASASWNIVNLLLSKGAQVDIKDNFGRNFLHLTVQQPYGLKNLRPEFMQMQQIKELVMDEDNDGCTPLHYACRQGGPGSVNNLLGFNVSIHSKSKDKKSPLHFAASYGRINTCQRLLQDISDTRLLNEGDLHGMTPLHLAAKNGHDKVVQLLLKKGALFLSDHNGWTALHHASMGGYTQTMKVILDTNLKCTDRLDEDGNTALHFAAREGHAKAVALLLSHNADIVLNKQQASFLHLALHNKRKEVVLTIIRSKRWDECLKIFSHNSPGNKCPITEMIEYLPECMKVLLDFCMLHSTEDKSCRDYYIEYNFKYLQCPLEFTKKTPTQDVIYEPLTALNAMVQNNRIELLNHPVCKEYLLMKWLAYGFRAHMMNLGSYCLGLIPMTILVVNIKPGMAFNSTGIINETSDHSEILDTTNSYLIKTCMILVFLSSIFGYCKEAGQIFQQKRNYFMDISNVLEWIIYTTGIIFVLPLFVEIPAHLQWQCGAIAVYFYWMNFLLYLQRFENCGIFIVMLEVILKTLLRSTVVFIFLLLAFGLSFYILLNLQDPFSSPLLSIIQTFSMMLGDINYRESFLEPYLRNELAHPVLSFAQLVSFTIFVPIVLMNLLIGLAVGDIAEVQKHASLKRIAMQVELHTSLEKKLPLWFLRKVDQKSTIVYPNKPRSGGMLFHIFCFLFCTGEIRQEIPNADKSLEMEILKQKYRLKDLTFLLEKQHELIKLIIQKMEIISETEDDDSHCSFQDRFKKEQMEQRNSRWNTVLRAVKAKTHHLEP

SMILES	IC50 (human TRPA1 channel) [nM]	bioavailability ([1]; male, SD, plasma, 10 mg/kg) [%]	AUC(0-inf) ([1]; male, SD, plasma, IV 2 mg/kg) [ng·h/mL]	Cmax ([1]; male, SD, plasma, IV 2 mg/kg) [ng/mL]	half-life ([1]; male, SD, plasma, IV 2 mg/kg) [h]	AUC(0-inf) ([1]; male, SD, plasma, PO 10 mg/kg) [ng·h/mL]	Cmax ([1]; male, SD, plasma, PO 10 mg/kg) [ng/mL]	half-life ([1]; male, SD, plasma, PO 10 mg/kg) [h]	number of appearance of writhing reaction ([2]; 10 mg/kg by gavage) [times]	further results
CNCC[C@H](Oc1cccc2ccccc12)c1cccs1 [Duloxetine (S configuration), Duloxetine]	4360	9.9	449	177	1.77	222	76	1.81	27	Tmax ([1]; PO 10 mg/kg, 10 mg/kg): 0.833 h; Tmax ([1]; male, SD, plasma, iv, 2 mg/kg, IV 2 mg/kg, read-out: Tmax): 0.083 h; Tmax ([1]; male, SD, plasma, po, 10 mg/kg, PO 10 mg/kg, read-out: Tmax): 0.83 h; number of appearance of writhing reaction ([2]; 20 mg/kg by gavage): 21 times; Licking time ([3]; 1 mg/kg intraperitoneal): 259.97 ± 64.44 s; Licking time ([3]; 5 mg/kg intraperitoneal): 230.49 ± 41.31 s; Licking time ([3]; 10 mg/kg intraperitoneal): 162.83 ± 36.27 s; Licking time ([3]; 20 mg/kg intraperitoneal): 72.27 ± 17.29 s; ED50 ([3]; Mus musculus, ip, intraperitoneal, phase II (10-60 min), dose that decreased licking time by half): 8 mg/kg
CNCC[C@H](Oc1cccc2ccoc12)c1cccs1 [Compound IC-1, (S)-3-(benzofuran-7-yloxy)-N-methyl-3-(thiophen-2-yl)propyl-1-amine]	430	179	449	170	2.97	4020	266	5.69	17	ratio of IC50 of S configuration of duloxetine to IC50 of the compound, manual patch clamp (human TRPA1 channel; manual patch clamp): 10.14; Tmax ([1]; male, SD, plasma, IV 2 mg/kg, read-out: Tmax): 0.083 h; Tmax ([1]; male, SD, plasma, PO 10 mg/kg, read-out: Tmax): 3 h; writhing number lower than in the saline control group ([2]; 5 mg/kg by gavage): 50%; number of appearance of writhing reaction ([2]; 5 mg/kg by gavage): 20 times; half effective dose ([2]; acetic acid writhing, gavage): less than 5 mg/kg; decrease of licking time as compared with blank Vehicle ([3]; 1 mg/kg, phase II (10-60 min)): more than 50%
